Source: patent EP0973766B1, “QUINOXALINEDIONES” (Pfizer Limited, priority 1997, dated 1998)

Test: Lipophilicity by the octanol/water partition method

With COCc1nnc(-c2ccc[n+]([O-])c2)n1-c1c(Cl)c(Cl)cc2[nH]c(=O)c(=O)[nH]c12 [Example 2, (-)-6,7-Dichloro-5-[3-methoxymethyl-5-(1-oxidopyridin-3-yl)-4H-1,2,4-triazol-4-yl]-2,3(1H,4H)-quinoxalinedione hydrate] the logD was -1.7.
